What all share (experiment): DTP human tumour cell line panel, 48 h
Assay [1] relates to U251 CNS.
Assay [2] relates to SNB-19 CNS.
In assay [3] the test system is SK-MEL-5 melanoma.
The subject of assay [4] is UACC-62 melanoma.
For assay [5], the system named is M14 melanoma.
The subject of assay [6] is PC-3 prostate.
The subject of assay [7] is SK-MEL-2 melanoma.
Assay [8] concerns NCI-H23 lung.
The subject of assay [9] is OVCAR-5 ovarian.
Assay [10] concerns SK-OV-3 ovarian.

Our source for the GI50 and TGI values is PubChem BioAssay (NCI).

Structures are written as SMILES.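 These data come from cells grown in 96-well plates and exposed to compound for 48 hours at five concentrations. GI50: concentration for 50% inhibition of growth. TGI: total growth inhibition.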 Some results are limits rather than exact numbers.

As to `CC(=O)O[C@@H]1C[C@]2(C(C)C)O[C@@]1(C)[C@@H]1CCC(C)=C1[C@@H]2OC(=O)/C=C/c1ccccc1`, the GI50 is 48.4 µM in assay [1]; 85.3 µM in [2]; 22.5 µM in assay [3]; 26.5 µM in assay [4]; 40.1 µM in assay [5]; 8.33 µM in assay [6]. The GI50 in [7] was more than 100 µM; in [8] it was 35.3 µM; in assay [9], more than 100 µM; in [10], 71.3 µM. Moreover, the total growth inhibition concentration (TGI) in [1] was more than 100 µM; in assay [2], more than 100 µM; in assay [3], 78.5 µM; in assay [4], more than 100 µM; in assay [5] it was more than 100 µM; in assay [6], more than 100 µM. In addition, the total growth inhibition concentration (TGI) in assay [7], in [8], in assay [9] and in assay [10] was more than 100 µM throughout.

As for `O=C(O)c1ccccc1-c1ccccc1C(=O)Nc1ccc2c(c1)Cc1cc(F)ccc1-2`, the total growth inhibition concentration (TGI) in assay [1] was 50.2 µM; in [2], more than 100 µM; in assay [3], 47.2 µM; in [4], 36.8 µM; in [5], 40 µM; in assay [6], 68.2 µM. Moreover, the total growth inhibition concentration (TGI) in [7] was 37.9 µM; in [8], 36.5 µM; in assay [9], 88.1 µM; in [10] it was more than 100 µM.

As to `Nc1ccncc1/C=C1/C(=O)Nc2ccccc21`, the GI50 in assay [1] was 47.9 µM; in [2], 36.8 µM; in [3], 28 µM; in [4], 32.5 µM; in assay [5], 20.5 µM; in [6], 41.1 µM. For the same compound, the GI50 in assay [7] is 19.4 µM; in [8], 31.9 µM; in assay [9], 75.3 µM; in [10] it was 46.7 µM. For the same compound, the TGI in [1] is more than 100 µM; in assay [2] it was more than 100 µM; in assay [3], more than 100 µM; in assay [4] it was more than 100 µM; in assay [5], 59.6 µM; in assay [6] it was more than 100 µM. The TGI in assay [7] is 87.3 µM; in [8] it was more than 100 µM; in assay [9], more than 100 µM; in assay [10], more than 100 µM.

For the compound `COc1cc2cn3c4ccc(O)cc4[nH]c(=O)c3c2cc1OC`, the concentration for 50% growth inhibition (GI50) is less than 0.01 µM in assay [1]; 0.0245 µM in assay [2]; less than 0.015 µM in assay [3]; less than 0.01 µM in assay [4]; 0.0206 µM in assay [5]; 0.0461 µM in assay [6]. Moreover, the GI50 in [7] is 0.0398 µM; in [8], 0.0716 µM; in assay [9] it was 0.269 µM; in [10] it was 0.0367 µM. The TGI came to 1.23 µM in [1]; 1.94 µM in assay [2]; 0.563 µM in assay [3]; 2.33 µM in assay [4]; 1.64 µM in [5]; 2.02 µM in [6]. The TGI in [7] amounted to 5.36 µM; in [8], 1.9 µM; in assay [9] it was 2.36 µM; in [10], 1.95 µM.

`COc1ccc(-n2cc(-c3ccc(Cl)c(Cl)c3)nc2SCc2cccc(C#N)c2)cc1`: the GI50 in assay [1] was 26.8 µM; in assay [2], 29.2 µM; in assay [3], 20.2 µM; in assay [4], 19.1 µM; in [5] it was 48.2 µM; in assay [6] it was 34.1 µM. In addition, the GI50 is more than 100 µM in assay [7], 39.8 µM in assay [8], 94.1 µM in assay [9] and 26.2 µM in assay [10]. The TGI in assay [1], in assay [2], in assay [3], in assay [4], in [5] and in assay [6] was more than 100 µM throughout. Besides, the TGI in [7], in [8], in [9] and in [10] was more than 100 µM each time.

With `Nc1c(C(=O)N/N=C/c2ccc(-c3ccc(Cl)cc3)o2)cnn1-c1ccnc2c(C(F)(F)F)cccc12`, the GI50 in [1] was more than 100 µM; in [2], more than 100 µM; in [3], 49.1 µM; in [4] it was more than 100 µM; in [5] it was more than 100 µM; in [6], 35 µM. The GI50 in assay [7], in assay [8], in [9] and in [10] was more than 100 µM in each case. Moreover, the TGI in assay [1], in assay [2], in assay [3], in [4], in assay [5] and in [6] was more than 100 µM in each case. In addition, the TGI in assay [7], in assay [8], in assay [9] and in assay [10] was more than 100 µM each time.

Take `N#CC(C(=O)/C(=N/Nc1nc(=S)[nH]n1N)C(C#N)c1ccccc1)c1ccccc1` (configuration not stated): the TGI in assay [1], in assay [2], in assay [3], in assay [4], in assay [5] and in assay [6] was more than 100 µM each time. In addition, the concentration for total growth inhibition (TGI) in [7], in [8], in assay [9] and in assay [10] was more than 100 µM in each case.

As for `O=C(O)c1c(-c2nccc3ccccc23)[nH]c(-c2ccccc2)c1S(=O)(=O)O`, the TGI in [1], in [2], in assay [3], in assay [4], in assay [5] and in assay [6] was more than 100 µM in each case. The TGI in [7], in [8], in [9] and in [10] was more than 100 µM in each case.

As to `CCN1C(=O)N(CC)C2C1NC(=S)N2/N=C/C=C/c1cccs1` (configuration not stated), the GI50 in assay [1] was 0.342 µM; in [2] it was 0.508 µM; in [3] it was 0.274 µM; in assay [4], 0.45 µM; in assay [5] it was 0.241 µM; in assay [6], 0.344 µM. The GI50 in [7] is 0.529 µM; in assay [8], 0.658 µM; in [9], 0.544 µM; in assay [10], 0.339 µM. In addition, the concentration for total growth inhibition (TGI) is more than 100 µM in [1]; more than 100 µM in [2]; 5.93 µM in assay [3]; more than 100 µM in [4]; 17.6 µM in [5]; more than 100 µM in [6]. Besides, the total growth inhibition concentration (TGI) in assay [7], in assay [8], in assay [9] and in [10] was more than 100 µM each time.

As to `CCCCCc1c(C)[nH]c(/C=C2\N=C(c3ccc[nH]3)C=C2CC)c1C`, the GI50 is less than 0.01 µM in assay [1]; 0.0433 µM in assay [2]; 0.0141 µM in assay [3]; 0.0158 µM in [4]; less than 0.01 µM in [5]; less than 0.011 µM in [6]. Further, the GI50 in assay [7] was less than 0.01 µM; in [8] it was less than 0.0124 µM; in assay [9], 0.0179 µM; in [10] it was 0.0609 µM. For the same compound, the TGI in assay [1] was 0.135 µM; in assay [2], 1.46 µM; in [3] it was 0.0278 µM; in assay [4] it was 0.043 µM; in assay [5] it was 0.0237 µM; in [6] it was 1.23 µM. The concentration for total growth inhibition (TGI) was determined as 0.0257 µM in assay [7], 0.135 µM in [8], 0.785 µM in [9] and 0.383 µM in assay [10].

As to `c1ccc2c3ccn4cc5c(cc4c-3nc2c1)CCCC5`, the GI50 in assay [1] is 3.22 µM; in assay [2], 3.49 µM; in [3], 2.42 µM; in assay [4], 3.25 µM; in assay [7] it was 3.05 µM; in assay [8], 3.13 µM. Further, the GI50 was 4.49 µM in assay [9] and 3.41 µM in assay [10]. Besides, the concentration for total growth inhibition (TGI) turned out to be 13.6 µM in assay [1]; 13.8 µM in [2]; 10.3 µM in [3]; 14.4 µM in assay [4]; 6.41 µM in assay [5]; 12.1 µM in assay [6]. Moreover, the TGI was 10.2 µM in [7], 14.7 µM in [8], 19.3 µM in [9] and 10.5 µM in assay [10].

As to `CCCS(=O)(=O)Nc1ccc(Nc2c3ccccc3nc3ccccc23)c(OC)c1`, the TGI in [1] came out at 4.41 µM; in [2], 8.98 µM; in assay [3] it was 14.7 µM; in assay [4], 13.1 µM; in assay [5] it was 17.8 µM; in assay [6], 17.6 µM. The TGI in [7] was 7.7 µM; in [8], 8.26 µM; in [9], 23.6 µM; in [10], 16.4 µM.

Consider `O=C1c2ccn(CCCCNC(CO)(CO)CO)c2C(=O)c2c1c(O)c1ccccc1c2O`, for which the GI50 is 1.95 µM in assay [1]; 3.33 µM in assay [2]; 5.21 µM in assay [3]; 1.86 µM in assay [5]; 2.83 µM in assay [6]; 31.6 µM in [7]. Besides, the results for the GI50 in assay [8], in assay [9] and in [10] were 3.01 µM, 1.91 µM and 7.81 µM, respectively. In addition, the TGI in assay [1] worked out at 4.67 µM; in assay [2], 22.6 µM; in assay [3], 53.1 µM; in assay [4] it was 0.931 µM; in assay [5] it was 3.59 µM; in assay [6], 7.57 µM. The TGI in assay [7] was more than 100 µM; in assay [8], 7.78 µM; in assay [9], 4.4 µM; in assay [10], more than 47.8 µM.
